# In patent US20250326722A1 (SHANGHAI HANSOH BIOMEDICAL CO., LTD., priority 2022, published 2025):
# Experiments:
# [1] = tested on: hyperlipidemia animal model of B6-hPCSK9 transgenic mice; experiment: In vivo pharmacodynamics in hyperlipidemia animal model of B6-hPCSK9 transgenic mice; parameters: species or system B6-hPCSK9 transgenic C57 mice; conditions: PO administration, 10 mpk, Day 14, high-fat feed
# Procedure: The compounds of the present disclosure were evaluated for in vivo pharmacodynamics in a hyperlipidemia animal model of B6-hPCSK9 transgenic mice.
# B6-hPCSK9 transgenic C57 mice, 6-8 weeks old, male, purchased from Jiangsu GemPharmatech Co., Ltd.
# After delivery to a barrier system, the animals were given one week for acclimatization and began to feed on the high-fat feed. The body weight and feed weight were weighed once a week, and the body weight and food intake thereof were recorded.
# a. The animals were grouped by a random grouping method.
# c. According to the grouping results, administration with the test drug was started (mode of administration: oral administration; administration volume: 10 mL/kg; frequency of administration: once/day or single administration; administration cycle: 21 days; vehicle: 10% Solutol HS 15/90% Saline).
# d. After the test drug was administered, the body weight and feed weight were weighed twice a week and blood was taken once a week.
# e. The data was processed with software such as Excel. […] PCSK9 in plasma was detected by ELISA.
# [2] = Pharmacokinetic determination in mice (plasma); assay type: in vivo, C57BL/6J mice; conditions: C57 mice, PO administration, 5 mpk; for AUC(0-inf) / half-life / MRT / Cmax: male, C57BL/6J, mouse, 5 mg/kg; for AUC(0-inf): read-out: Area under the curve AUC0-∞; for half-life: read-out: Half-life t1/2 (converted); for MRT: read-out: Mean residence time MRT; for Cmax: read-out: Plasma concentration Cmax
# In short: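 Male C57BL/6J mice (n=3 per route), fasted overnight, got 5 mg/kg PO in 10% Solutol HS15 or 1 mg/kg IV in 5% DMSO/10% Solutol HS15/85% PBS. Orbital blood was sampled at 0.083 (IV only), 0.25, 0.5, 1, 2, 4, 8 and 24 h. EDTA-K2 plasma was quantified by LC-MS/MS for PK parameters.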
# [3] = tested on: LDLR level in HepG2 cells; experiment: Effect on the LDLR level in HepG2 cells (ELISA); assay type: cell-based, human; parameters: concentration or dose not given beside the values; conditions: 48 hours incubation, LDLR ELISA of lysate
# Procedure: To detect the effect of the compounds on the LDLR protein level.
# Envision (PE-Cisbio: 2105-0020), centrifuge (Eppendorf: 5810R), water purifier (THERMO: Pacific T II+Micropure), plate washer (Thermo: […] VERSA), and microplate shaker (Thermo: 88882006)
# • 1) HepG2 cell strain was cultured in the complete culture medium at 37° C., 5% CO2 to 70-90% confluence. • 2) The cells were digested and resuspended in the experimental culture medium, inoculation was performed at 25,000 cells/well/200 μL in a 96-well cell culture plate, and the cells were cultured at 37° C., 5% CO2 for 20-24 hours. • 3) The culture medium was removed from the cell culture plate, and the cell culture plate was washed once by adding 200 μl of the experimental culture medium to each well. • 4) Preparation of positive control compound and compound to be tested: the positive control compound and the compound to be tested were diluted on the compound plate. • 5) The diluted compound was added to the cell culture plate at 250 μL per well and incubated at 37° C. and 5% CO2 for 48 hours. • 6) The cell culture medium was removed, the cells were washed with PBS, and 50 μL of the cell lysis buffer and the protein inhibitor were added. • 7) After centrifugation, the lysate was removed and the sample was stored for later use. • 8) Preparation of standard curve: corresponding volumes of Dilution buffer were successively added to respective standard tubes, and the standard was diluted in series by taking the corresponding volume from the original tube or the last concentration tube. • 9) Preparation of washing liquid: 10× Wash buffer was diluted into 1× with Milli-Q for later use. • 10) According to the standard curve wells and sample wells set according to a plate map, 80 μL/well of the corresponding standards and samples were added to the wells, with 2 replicate wells. A well in which no standard was added was used as a background value well. A self-adhesive seal was applied, the plate was placed on a plate shaker at room temperature, gently shaken, uniformly mixed, and incubated for 2 hours. • 11) The plate was placed on the plate washer, the washing liquid was set to 350 μL per well, and the plate was washed 4 times repeatedly. • 12) 200 μL of Human LDLR conjugate was added, a self-adhesive seal was applied, and the plate was placed on the plate shaker, well mixed uniformly, and incubated for 2 hours. • 13) The plate was placed on the plate washer, the washing liquid was set to 350 μL per well, and the plate was washed 4 times repeatedly. • 14) 200 μL/well of Substrate solution was added, and the plate was placed in the dark, applied with a self-adhesive seal, placed on the plate shaker, well mixed uniformly, and incubated for 20 minutes. • 15) 50 μL/well of Stop solution was added and mixed uniformly over 20 min. • 16) The optical density (OD) value in each well was measured in sequence at a wavelength of 450 nm by the microplate reader.
# After the OD values were read by the microplate reader, the OD value of the 0-concentration standard in the standard group was subtracted from the OD values of the standards, control group, and samples to obtain the actual OD values for these wells. A standard curve was plotted with Graphpad and the concentration of the sample was calculated. If the dilution was performed during the sample detection, the calculated sample concentration was necessarily multiplied by the corresponding dilution ratio in the final calculation, which was the actual concentration of the sample. Concentration increase %=(actual concentration in control-actual concentration in sample)/actual concentration in control*100.
SMILES,"LDL-C change, Day 14 [1] [%]",Time to peak tmax [2] [h],AUC(0-inf) [2] [ng·h/mL],half-life [2] [h],MRT [2] [h],Cmax [2] [ng/mL],LDLR expression level [3] [%]
"Cc1cc2c(cn1)CN(c1ccc(N[C@H]3CC[C@H](Nc4ncc(C(F)(F)F)nn4)C3)nc1)C2=O [Example 148, 6-Methyl-2-(6-(((1S,3S)-3-((6-(trifluoromethyl)-1,2,4-triazin-3-yl)amino)cyclopentyl)amino)pyridin-3-yl)-2,3-dihydro-1H-pyrrolo[3,4-c]pyridin-1-one]",−24.61,1,59800,3.4,4.3,13500,121
O=C1c2ncccc2CN1c1ccc(N[C@H]2CC[C@H](Nc3ncc(C(F)(F)F)nn3)C2)nc1 [Example 144],−30.39,1,15000,2.8,4,2820,117
"O=C1c2c(cccc2C(F)(F)F)CN1c1ccc(N[C@H]2CC[C@H](Nc3ncc(C(F)(F)F)nn3)C2)nc1 [Example 157, 7-(Trifluoromethyl)-2-(6-(((1S,3S)-3-((6-(trifluoromethyl)-1,2,4-triazin-3-yl)amino)cyclopentyl)amino)pyridin-3-yl) isoindolin-1-one]",−28.99,0.5,6200,3.1,2.6,2190,129
